Experiments:
[1] = target: T1, PARP-1 CAT domain WT (Homo sapiens, UniProt P09874); test: Differential scanning fluorimetry (DSF), PARP-1 CAT WT; type: binding; details: for TM: Figure 1e, CAT WT 5 μM, TM without compound 51.58, in °C (unit assumed)
T1 construct: The PARP-1 CAT WT (residues 661–1014) was cloned in pET28 vector; made in house; host or cells: E. coli
Method: (§1) DSF experiments were performed as described, [13] using 5 µM protein, 2.5 µM DNA when indicated and various concentrations of compound (BAD, carba-NAD^+, benzamide, and ADP-ribose) as indicated in Fig. 1 and Fig. 3. Experiments were performed on a Roche LightCycler 480 RT-PCR. Reactions including DNA were performed with a 26- or 28-base pair (bp) unphosphorylated oligonucleotide for PARP-1, a 28-bp 5´-phosphorylated (5´P) oligonucleotide for PARP-2, and a 47-bp oligonucleotide including a central 5´P nick for PARP-3^13 in the following buffer: 25 mM Hepes pH 8.0, 150 mM NaCl, 1 mM EDTA, and 0.1 mM TCEP. Reactions with PARP-3 were conducted at lower ionic strength to allow binding to DNA as described (25 mM Hepes pH 8.0, 50 mM NaCl, 1 mM EDTA and 0.1 mM TCEP)[13]. ΔTM values were calculated by subtracting the TM determined for the protein in the absence of compound from the TM determined in the presence of compound. Experiments were performed in triplicate and a Boltzmann sigmoid was fit to the data to determine the TM values (KaleidaGraph).

[2] = target: T2, full-length PARP-1 (Homo sapiens, UniProt P09874); test: Colorimetric assay of full-length PARP-1 DNA-dependent activity; type: biochemical; details: 20 nM PARP-1, 40 nM DNA, 50 μM NAD+
T2 construct: Full-length PARP-1 WT (residues 1–1014) was cloned in pET28 vector; made in house; host or cells: E. coli
T2 sequence (P09874 whole entry, the tested form may be a part): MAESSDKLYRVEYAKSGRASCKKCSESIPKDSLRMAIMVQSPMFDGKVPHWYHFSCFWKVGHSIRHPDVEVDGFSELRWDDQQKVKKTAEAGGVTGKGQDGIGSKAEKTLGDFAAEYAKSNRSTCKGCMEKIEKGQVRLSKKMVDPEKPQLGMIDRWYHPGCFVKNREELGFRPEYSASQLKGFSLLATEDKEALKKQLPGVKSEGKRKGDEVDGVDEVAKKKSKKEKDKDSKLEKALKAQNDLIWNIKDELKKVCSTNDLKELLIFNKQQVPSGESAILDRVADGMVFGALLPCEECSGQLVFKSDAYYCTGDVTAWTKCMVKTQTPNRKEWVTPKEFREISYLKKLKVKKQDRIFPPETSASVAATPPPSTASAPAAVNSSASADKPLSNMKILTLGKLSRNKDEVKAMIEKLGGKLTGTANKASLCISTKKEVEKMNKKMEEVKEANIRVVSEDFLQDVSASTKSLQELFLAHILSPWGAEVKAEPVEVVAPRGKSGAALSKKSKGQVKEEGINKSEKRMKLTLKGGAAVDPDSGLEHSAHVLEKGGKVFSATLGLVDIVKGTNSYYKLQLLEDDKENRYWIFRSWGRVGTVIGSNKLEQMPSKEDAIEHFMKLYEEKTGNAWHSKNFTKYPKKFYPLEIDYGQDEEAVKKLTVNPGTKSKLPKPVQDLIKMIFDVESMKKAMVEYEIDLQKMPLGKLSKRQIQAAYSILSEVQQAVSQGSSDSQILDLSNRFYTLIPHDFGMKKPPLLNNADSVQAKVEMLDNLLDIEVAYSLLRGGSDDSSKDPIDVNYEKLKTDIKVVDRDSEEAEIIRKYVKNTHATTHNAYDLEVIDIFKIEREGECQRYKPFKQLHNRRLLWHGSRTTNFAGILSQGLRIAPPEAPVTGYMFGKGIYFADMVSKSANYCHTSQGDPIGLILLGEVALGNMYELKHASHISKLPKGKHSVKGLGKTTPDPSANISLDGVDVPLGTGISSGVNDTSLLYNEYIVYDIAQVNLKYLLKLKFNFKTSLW
Method: The colorimetric assay was performed as described, [28] using 20 nM of protein and 40 nM DNA (18-bp duplex). A mixture of NAD^+ and biotinylated NAD^+ (bio-NAD^+) was used at a 99:1 ratio and a final concentration of 50 µM. Reactions were allowed to proceed for 5 min before quenching. Three independent experiments were performed.

[3] = target: T3, PARP-1 CAT ΔHD (Homo sapiens, UniProt P09874); test: DSF, PARP-1 CAT ΔHD; type: binding; details: for TM: Figure 1e, CAT ΔHD 5 μM, TM without compound 41.26, in °C (unit assumed)
T3 construct: a pET28 construct coding for PARP-1 residues 661-1011; made in house; host or cells: E. coli
T3 sequence (P09874 with tags, fused parts or gaps): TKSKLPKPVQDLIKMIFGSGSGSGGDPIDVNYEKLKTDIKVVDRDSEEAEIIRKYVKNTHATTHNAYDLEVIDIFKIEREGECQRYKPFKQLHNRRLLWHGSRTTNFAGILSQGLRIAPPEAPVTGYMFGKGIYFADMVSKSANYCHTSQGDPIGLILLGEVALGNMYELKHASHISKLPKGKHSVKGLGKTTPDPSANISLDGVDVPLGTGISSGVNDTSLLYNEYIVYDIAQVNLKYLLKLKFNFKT
Method: as §1

[4] = 5 μM protein, various amounts of compound

T1 sequence (P09874 661-1014): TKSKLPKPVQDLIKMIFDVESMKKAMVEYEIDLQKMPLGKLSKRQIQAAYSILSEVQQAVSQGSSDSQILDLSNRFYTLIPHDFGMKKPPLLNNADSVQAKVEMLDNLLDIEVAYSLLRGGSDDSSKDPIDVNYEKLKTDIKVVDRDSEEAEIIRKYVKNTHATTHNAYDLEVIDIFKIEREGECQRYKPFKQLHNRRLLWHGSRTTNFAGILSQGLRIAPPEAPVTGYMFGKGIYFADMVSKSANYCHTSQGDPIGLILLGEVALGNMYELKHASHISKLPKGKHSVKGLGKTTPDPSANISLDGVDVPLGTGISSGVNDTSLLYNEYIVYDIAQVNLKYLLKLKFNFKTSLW

Question: With `Nc1ncnc2c1ncn2C1OC(COP(=O)(O)OP(=O)(O)OCC2OC(O)C(O)C2O)C(O)C1O` (centres unmarked) [ADP-ribose] as the compound, how does the “change of apparent TM of PARP-1 CAT WT (evidence of binding)” value [1, 4] read?
Answer: Its value is “no evidence of binding”.

Question: What about the TM ([1]; compound 25 µM) of the same compound?
Answer: Its TM is 51.52.

Question: And the TM ([1]; compound 150 µM)?
Answer: The TM was 51.61.

Question: What about the TM ([1]; compound 750 µM) of the same compound?
Answer: Its TM is 51.56.

Question: What about the TM ([1]; compound 1500 µM) of the same compound?
Answer: Its TM is 51.53.

Question: What about the “inhibition of DNA damage-dependent activity of full-length PARP-1” value [2] of the same compound?
Answer: Its value is “does not inhibit the reaction”.

Question: And the “change of TM of CAT ΔHD (evidence of binding)” value [3, 4]?
Answer: The value was “no evidence of binding”.

Question: What about the TM ([3]; compound 25 µM) of the same compound?
Answer: Its TM is 41.46.

Question: What about the TM ([3]; compound 150 µM) of the same compound?
Answer: Its TM is 41.57.

Question: What about the TM ([3]; compound 750 µM) of the same compound?
Answer: The TM was 41.43.

Question: And the TM ([3]; compound 1500 µM)?
Answer: The TM was 41.68.
